Structures are written as SMILES.

This data set in a line: in vitro. The following applies: African green monkey.
With `O=c1[nH]cnc2c([C@@H]3N[C@H](CO)[C@@H](O)[C@H]3O)c[nH]c12` [Forodesine], the CC50 was greater than 100 µM.
The compound `CC(C)Nc1nc2cc(Cl)c(Cl)cc2n1[C@H]1O[C@@H](CO)[C@H](O)[C@@H]1O` [Maribavir] yielded a CC50 greater than 100 µM.
Turning to `CC(C)C(=O)OC[C@H]1O[C@@H](n2ccc(NO)nc2=O)[C@H](O)[C@@H]1O` [Molnupiravir], the CC50 is greater than 100 µM.
The compound `COc1nc(N)nc2c1ncn2[C@@H]1O[C@H](CO)[C@@H](O)[C@@H]1O` [Nelarabine] showed a CC50 greater than 100 µM.
For `CCC(CC)COC(=O)[C@H](C)N[P@](=O)(OC[C@H]1O[C@@](C#N)(c2ccc3c(N)ncnn23)[C@H](O)[C@@H]1O)Oc1ccccc1` [Remdesivir], the CC50 was greater than 100 µM.
With `CC(C)=CCNc1ncnc2c1ncn2[C@@H]1O[C@H](CO)[C@@H](O)[C@H]1O` [Riboprine, N ^6-(2-Isopentenyl)adenosine] the figure was greater than 100 µM.
With `OC[C@H]1O[C@@H](n2cnc3c(N[C@@H]4CCOC4)ncnc32)[C@H](O)[C@@H]1O` [Tecadenoson], the CC50 was greater than 100 µM.
`Nc1ncnc2c1ncn2[C@@H]1O[C@H](CO)[C@@H](O)[C@@H]1O` [Vidarabine, Arabinosyladenine] gave a CC50 greater than 100 µM.

Values taken from paper PMC9450471 (Computational Biology and Chemistry, 2022).
